Test results reported in US20240277698A1, “METHODS OF USING ALDOSTERONE SYNTHASE INHIBITORS” (CINCOR PHARMA, INC., priority 2021, published 2024).
Read-outs that look alike come from different tables or passages of the source.

Experiment: Multiple-ascending dose (MAD) study, once daily for 10 days in healthy subjects: plasma pharmacokinetics
Format: in vivo, human
Conditions: for AUC extrap / CLss/F / RAUC (accumulation ratio AUC0-tau/AUC0-24h) / RCmax (accumulation ratio Cmax, D10/Cmax, D1) / AUC(0-t) / Cmax / AUC(0-inf) / AUC / Vd/F / half-life: mean (CV %); for AUC(0-t): read-out: AUC0-24 h; for AUC: read-out: AUC0-tau; for Vd/F: read-out: Vss/F; for half-life: read-out: t½ (converted)
Procedure: This was a randomized, double-blind study to assess the safety, tolerability, PK, and PD of multiple oral doses of (R)-compound 1 when administered to healthy adult subjects. The study consisted of 5 cohorts, with up to 12 subjects per cohort. Subjects were randomized in a 3:1 ratio to (R)-compound 1 or placebo once daily for 10 days as follows: • Cohort 1: 2.5 mg (R)-compound 1 or matching placebo (low salt diet in 9 subjects receiving (R)-compound 1 and 3 subjects receiving placebo); • Cohort 2: 5.0 mg (R)-compound 1 or matching placebo (low salt diet in 9 subjects receiving (R)-compound 1 and 3 subjects receiving placebo); • Cohort 3: 1.5 mg (R)-compound 1 or matching placebo (normal salt diet in 9 subjects receiving (R)-compound 1 and 3 subjects receiving placebo); • Cohort 4: 2.5 mg (R)-compound 1 or matching placebo (normal salt diet in 6 subjects receiving (R)-compound 1 and 2 subjects receiving placebo); and • Cohort 5: 0.5 mg (R)-compound 1 or matching placebo (normal salt diet in 9 subjects receiving (R)-compound 1 and 3 subjects receiving placebo).
For each subject, the study consisted of: • A screening period of up to 28 days; • A 5-day inpatient run-in period during which subjects adhered to a controlled, standardized diet and underwent baseline PD assessments; • A 15-day inpatient treatment period, during which subjects received (R)-compound 1 or placebo once daily for 10 days while adhering to a controlled, standardized diet, followed by PK and PD sampling over an additional 5 days; and • A follow-up visit 3 days (1 day) after discharge from the clinical unit. • A cortisol stimulation test (Cohorts 1 and 2 only) and standing aldosterone assessment (all cohorts) were performed on Days 1 and 10. Serial blood samples for PK and PD were obtained prior to and at specified time points over 24 hours after dosing on Day 1 as well as prior to and at specified time points over 120 hours after dosing on Day 10. In addition, blood samples for PK were collected prior to dosing on Days 8 and 9. Urine for PK and PD measurements was collected over 24 hours starting just prior to dosing on Day 1 as well as over 120 hours starting just prior to dosing on Day 10.
Study subjects were dosed with (R)-compound 1 (oral drinking solution) or matching placebo. The doses of (R)-compound 1 administered were 2.5 and 5.0 mg with a low salt diet and 1.5, 2.5, and 0.5 mg with a normal salt diet.
(only for (R)-compound 1).

[1] = 0.5 mg QD, normal salt diet, Day 10
[2] = 1.5 mg QD, normal salt diet, Day 10
[3] = 2.5 mg QD, low salt diet, Day 10
[4] = 2.5 mg QD, normal salt diet, Day 10
[5] = 5.0 mg QD, low salt diet, Day 10
[6] = human, plasma, oral, 0.5 mg, 0.5 mg QD, normal salt diet, Day 10
[7] = human, plasma, oral, 1.5 mg, 1.5 mg QD, normal salt diet, Day 10
[8] = human, plasma, oral, 2.5 mg, 2.5 mg QD, low salt diet, Day 10
[9] = human, plasma, oral, 2.5 mg, 2.5 mg QD, normal salt diet, Day 10
[10] = human, plasma, oral, 5 mg, 5.0 mg QD, low salt diet, Day 10

CCC(=O)N[C@@H]1CCCc2c(-c3ccc4c(c3)CCC(=O)N4C)cncc21 [(R)-Compound 1, (R)—N-(4-(1-methyl-2-oxo-1,2,3,4-tetrahydroquinolin-6-yl)-5,6,7,8-tetrahydroisoquinolin-8-yl)propionamide]
AUC extrap [1]: 6.325 (42.2) % | CLss/F [1]: 3.421 (29.4) L/h | RAUC (accumulation ratio AUC0-tau/AUC0-24h) (0.5 mg QD, normal salt diet): 1.960 (13.9) | RCmax (accumulation ratio Cmax, D10/Cmax, D1) (0.5 mg QD, normal salt diet): 1.827 (14.2) | AUC extrap [2]: 6.106 (65.9) % | CLss/F [2]: 3.350 (27.5) L/h | RAUC (accumulation ratio AUC0-tau/AUC0-24h) (1.5 mg QD, normal salt diet): 2.307 (13.8) | RCmax (accumulation ratio Cmax, D10/Cmax, D1) (1.5 mg QD, normal salt diet): 2.132 (11.2) | AUC extrap [3]: 4.519 (45.4) % | CLss/F [3]: 3.277 (16.1) L/h | RAUC (accumulation ratio AUC0-tau/AUC0-24h) (2.5 mg QD, low salt diet): 2.147 (7.4) | RCmax (accumulation ratio Cmax, D10/Cmax, D1) (2.5 mg QD, low salt diet): 1.965 (15.1) | AUC extrap [4]: 3.832 (85.6) % | CLss/F [4]: 4.315 (36.9) L/h | RAUC (accumulation ratio AUC0-tau/AUC0-24h) (2.5 mg QD, normal salt diet): 1.994 (22.3) | RCmax (accumulation ratio Cmax, D10/Cmax, D1) (2.5 mg QD, normal salt diet): 1.706 (34.1) | AUC extrap [5]: 5.397 (52.6) % | CLss/F [5]: 3.207 (26.3) L/h | RAUC (accumulation ratio AUC0-tau/AUC0-24h) (5.0 mg QD, low salt diet): 2.507 (10.2) | RCmax (accumulation ratio Cmax, D10/Cmax, D1) (5.0 mg QD, low salt diet): 2.424 (13.6) | AUC(0-t) (human, plasma, oral, 0.5 mg, 0.5 mg QD, normal salt diet, Day 1): 79.5 ng·h/mL | Cmax (human, plasma, oral, 0.5 mg, 0.5 mg QD, normal salt diet, Day 1, read-out: Cmax, D 1): 5.36 ng/mL | Tmax (human, plasma, oral, 0.5 mg, 0.5 mg QD, normal salt diet, Day 1, median (min, max), read-out: Tmax, D 1): 2 h | AUC(0-inf) [6]: 351 ng·h/mL | AUC [6]: 155 ng·h/mL | Cmax (human, plasma, oral, 0.5 mg, 0.5 mg QD, normal salt diet, Day 10, read-out: Cmax, D 10): 9.72 ng/mL | Vd/F [6]: 152 L | Tmax (human, plasma, oral, 0.5 mg, 0.5 mg QD, normal salt diet, Day 10, median (min, max), read-out: Tmax, D 10): 2 h | AUC(0-t) (human, plasma, oral, 1.5 mg, 1.5 mg QD, normal salt diet, Day 1): 205 ng·h/mL | Tmax (human, plasma, oral, 1.5 mg, 1.5 mg QD, normal salt diet, Day 1, median (min, max), read-out: Tmax, D 1): 2.5 h | AUC(0-inf) [7]: 1110 ng·h/mL | AUC [7]: 480 ng·h/mL | Vd/F [7]: 137 L | Tmax (human, plasma, oral, 1.5 mg, 1.5 mg QD, normal salt diet, Day 10, median (min, max), read-out: Tmax, D 10): 2.5 h | AUC(0-t) (human, plasma, oral, 2.5 mg, 2.5 mg QD, low salt diet, Day 1): 366 ng·h/mL | Tmax (human, plasma, oral, 2.5 mg, 2.5 mg QD, low salt diet, Day 1, median (min, max), read-out: Tmax, D 1): 3 h | AUC(0-inf) [8]: 1490 ng·h/mL | AUC [8]: 783 ng·h/mL | Cmax (human, plasma, oral, 2.5 mg, 2.5 mg QD, low salt diet, Day 10, read-out: Cmax, D 10): 54 ng/mL | Vd/F [8]: 135 L | Tmax (human, plasma, oral, 2.5 mg, 2.5 mg QD, low salt diet, Day 10, median (min, max), read-out: Tmax, D 10): 2 h | AUC(0-t) (human, plasma, oral, 2.5 mg, 2.5 mg QD, normal salt diet, Day 1): 344 ng·h/mL | Tmax (human, plasma, oral, 2.5 mg, 2.5 mg QD, normal salt diet, Day 1, median (min, max), read-out: Tmax, D 1): 3 h | AUC(0-inf) [9]: 1460 ng·h/mL | AUC [9]: 677 ng·h/mL | Vd/F [9]: 150 L | Tmax (human, plasma, oral, 2.5 mg, 2.5 mg QD, normal salt diet, Day 10, median (min, max), read-out: Tmax, D 10): 3 h | AUC(0-t) (human, plasma, oral, 5 mg, 5.0 mg QD, low salt diet, Day 1): 658 ng·h/mL | AUC(0-inf) [10]: 3480 ng·h/mL | AUC [10]: 1660 ng·h/mL | Vd/F [10]: 134 L | Tmax (human, plasma, oral, 5 mg, 5.0 mg QD, low salt diet, Day 10, median (min, max), read-out: Tmax, D 10): 3 h | Tmax (human, plasma, oral, 0.5 to 5 mg QD, read-out: median Tmax, range across treatment groups): 0.98 to 4 h | half-life (human, plasma, oral, 1.5 mg QD, normal salt diet, Day 10): 29.9 h | half-life (human, plasma, oral, 2.5 mg QD, normal salt diet, Day 10): 25.5 h | half-life (human, plasma, oral, 5.0 mg QD, low salt diet, Day 10): 29.4 h | half-life at 10 days (human, plasma, oral, approximately, read-out: mean t½, range): 26 to 31 h | time after dosing within which peak concentrations typically observed (oral administration): ≤ 4 h
